Test results from ChEMBL document CHEMBL1150478, “Synthesis and in vitro antiandrogenic activity of 17-hydroxy-17-(-hydroxy/haloalkyn-1-yl)-4-methyl-4-aza-3-oxo-5-androstan-(1-ene)-3-ones” (Bioorg Med Chem Lett, 1995).

Experiment: Concentration required for inhibition of 5-alpha-Dihydrotestosterone (DHT) stimulated shionogi cell proliferation was determined; No activity was observed at 1 uM
Assay type: functional
Conditions: Mus musculus

Compound	IC50 [nM]
CN1C(=O)C=C[C@]2(C)C3CC[C@@]4(C)C(CC[C@@]4(O)C#CCCO)C3CCC12 (some centres not stated)	> 1000
CN1C(=O)CC[C@]2(C)C3CC[C@@]4(C)C(CC[C@@]4(O)C#CCCCO)C3CCC12 (some centres not stated)	> 1000
CN1C(=O)C=C[C@]2(C)C3CC[C@@]4(C)C(CC[C@@]4(O)C#CCCCO)C3CCC12 (some centres not stated)	> 1000
CN1C(=O)CC[C@]2(C)C3CC[C@@]4(C)C(CC[C@@]4(O)C#CCCO)C3CCC12 (some centres not stated)	> 1000

Experiment: Concentration required for inhibition of 5-alpha-Dihydrotestosterone (DHT) stimulated shionogi cell proliferation was determined
Assay type: functional
Conditions: Mus musculus

Compound	IC50 [nM]
CN1C(=O)CC[C@]2(C)C3CC[C@@]4(C)C(CC[C@@]4(O)C#CCCCBr)C3CCC12 (some centres not stated)	325
CN1C(=O)CC[C@]2(C)C3CC[C@@]4(C)C(CC[C@@]4(O)C#CCCBr)C3CCC12 (some centres not stated)	279
CN1C(=O)C=C[C@]2(C)C3CC[C@@]4(C)C(CC[C@@]4(O)C#CCCCI)C3CCC12 (some centres not stated)	179
CN1C(=O)CC[C@]2(C)C3CC[C@@]4(C)C(CC[C@@]4(O)C#CCCCCl)C3CCC12 (some centres not stated)	129
CN1C(=O)CC[C@]2(C)C3CC[C@@]4(C)C(CC[C@@]4(O)C#CCCI)C3CCC12 (some centres not stated)	160
CN1C(=O)CC[C@]2(C)C3CC[C@@]4(C)C(CC[C@@]4(O)C#CCCCI)C3CCC12 (some centres not stated)	328
CN1C(=O)C=C[C@]2(C)C3CC[C@@]4(C)C(CC[C@@]4(O)C#CCCCCl)C3CCC12 (some centres not stated)	67.2
CN1C(=O)C=C[C@]2(C)C3CC[C@@]4(C)C(CC[C@@]4(O)C#CCCCBr)C3CCC12 (some centres not stated)	149
CN1C(=O)C=C[C@]2(C)C3CC[C@@]4(C)C(CC[C@@]4(O)C#CCCBr)C3CCC12 (some centres not stated)	142
CN1C(=O)C=C[C@]2(C)C3CC[C@@]4(C)C(CC[C@@]4(O)C#CCCI)C3CCC12 (some centres not stated)	96.8
CN1C(=O)C=C[C@]2(C)C3CC[C@@]4(C)C(CC[C@@]4(O)C#CCCCl)C3CCC12 (some centres not stated)	94.5
CN1C(=O)CC[C@]2(C)C3CC[C@@]4(C)C(CC[C@@]4(O)C#CCCCl)C3CCC12 (some centres not stated)	250
CC(C)(O)C(=O)Nc1ccc([N+](=O)[O-])c(C(F)(F)F)c1 [HYDROXYFLUTAMIDE]	52.5
